Experimental data taken from PubChem BioAssay (NCI).
“And” between values parts separate entries of the source, which are not always exact repeats. Identical values can stand only once.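 Five concentrations, 48 hours, 96-well plates. GI50: concentration for 50% inhibition of growth. TGI: concentration producing complete growth inhibition.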

What was measured:
Assay in all cases: growth of human tumour cells (NCI), 48 h
[1] = tested on: 786-0 renal
[2] = tested on: EKVX NSCLC
[3] = tested on: MOLT-4 leukemia
[4] = tested on: NCI-H23 lung
[5] = tested on: SF-295 CNS
[6] = tested on: SK-MEL-28 melanoma
[7] = tested on: SK-MEL-5 melanoma
[8] = tested on: SK-OV-3 ovarian
[9] = tested on: SNB-19 CNS
[10] = tested on: TK-10 renal

Compound | GI50 [1] | TGI [1] | GI50 [2] | TGI [2] | GI50 [3] | TGI [3] | GI50 [4] | TGI [4] | GI50 [5] | TGI [5] | GI50 [6] | TGI [6] | GI50 [7] | TGI [7] | GI50 [8] | TGI [8] | GI50 [9] | TGI [9] | GI50 [10] | TGI [10]
C=C1C(=O)O[C@H]2[C@H]1CC/C(COC(=O)CCSCCC(=O)OC/C1=C/CC[C@@]3(C)O[C@H]3[C@H]3OC(=O)C(=C)[C@@H]3CC1)=C\CC[C@@]1(C)O[C@@H]21 | 0.904 µM | 2.21 µM | 1.42 µM | 3.39 µM | 0.422 µM | 2.12 µM | 1.89 µM | 4.2 µM | 1.77 µM | 3.94 µM | 1.39 µM | 2.86 µM | 1.64 µM | 3.14 µM | 4.1 µM | 13.8 µM | 2.43 µM | 7.29 µM | 1.5 µM | 2.98 µM
COc1cc2c(cc1OC)C(Sc1ccc(SC)cc1)c1c(nc(N)c(C#N)c1N)O2 (stereo not given) | 1.53 µM | 2.85 µM | 1.78 µM | 3.32 µM | 1.07 µM | 4.08 µM | 1.78 µM | 3.55 µM | 1.63 µM | 3.01 µM | 1.72 µM | 3.22 µM | 1.69 µM | 3.07 µM | 1.88 µM | 3.31 µM | 1.45 µM | 2.8 µM | 1.6 µM | 2.95 µM
CCC(c1ccc(OC)cc1)C(CC)c1ccc(O)c(CN2CCN(C)CC2)c1 (stereo not given) | 3.4 µM | 10.9 µM | 5.37 µM | 19.2 µM | 6.01 µM | 20.4 µM | 6.37 µM | 20.6 µM | 2.06 µM | 3.95 µM | 2.16 µM | 4.23 µM | 1.69 µM | 3.22 µM | 13.8 µM | 29.2 µM | 4.88 µM | 18.5 µM | 4.48 µM | 15.6 µM
Cc1cc2cc3ccc(N(C)C)cc3nc2cc1N | 0.597 µM | 2.47 µM | 0.273 µM | 3.11 µM | 0.438 µM | 9.31 µM | 0.49 µM | 4.42 µM | 0.273 µM | 2.03 µM | 1.69 µM | 4.74 µM | 0.767 µM | 2.25 µM | 0.552 µM | 3.35 µM | 0.582 µM | 4.42 µM | 1.41 µM | 9.44 µM
Oc1ccc(-c2nc3ccc4[nH]ncc4c3c3c2CCCC3)c(F)c1 | 2.5 µM | 12.1 µM | 3.16 µM | 13.5 µM | 1.91 µM | 8.88 µM | 3.15 µM | 14 µM | 3.81 µM | 14.3 µM | 2.74 µM | 12.4 µM | 2.55 µM | 9.26 µM | 0.765 µM | 2.75 µM | 3.59 µM | 14.2 µM | 2 µM | 9.53 µM
COc1cc(-c2cc(-c3ccc(Nc4ccnc5cc(Cl)ccc45)cc3)nc(N3CCOCC3)n2)cc(OC)c1OC | 2.08 µM | 4.81 µM | 2.62 µM | 9.73 µM | 2.58 µM | 9.2 µM | 2.2 µM | 6.22 µM | 1.95 µM | 4.12 µM | 1.98 µM | 3.93 µM | 3.5 µM | > 100 µM | 14.9 µM | 31.7 µM | 2.36 µM | 5.28 µM | 1.82 µM | 3.3 µM
O=C1C2=C(c3ccccc31)C(c1ccccc1)N1C(=O)CSC1=N2 (stereo not given) | – | > 100 µM | – | > 100 µM | – | > 100 µM | – | > 100 µM | – | > 100 µM | – | > 100 µM | – | > 100 µM | – | > 100 µM | – | > 100 µM | – | > 100 µM
Cc1ccc(NC(=O)C2C(=O)N(c3ccc(C)c(C)c3)C(=O)/C2=N\NC(N)=O)cc1C (stereo not given) | – | > 100 µM | – | > 100 µM | – | > 100 µM | – | > 100 µM | – | > 100 µM | – | > 100 µM | – | > 100 µM | – | > 100 µM | – | > 100 µM | – | > 100 µM
CC1=CC(=O)C(C(C)C)=CC1=Nc1cc(Br)c(O)c(Br)c1 | 5.03 µM | 17.8 µM | 4.51 µM | 36 µM | 4.53 µM | 23.4 µM | 4.26 µM | 26.1 µM | 1.4 µM | 5.53 µM | 6.82 µM | 22.4 µM | 3.15 µM | 10.7 µM | 3.45 µM | 15.9 µM | 9.95 µM | 26.1 µM | 11.7 µM | 31.4 µM
N#CC1CCCCOCCOCCOCCOCCOCCCCCC1=O (stereo not given) | – | > 100 µM | – | > 100 µM | – | > 100 µM | – | > 100 µM | – | > 100 µM | – | > 100 µM | – | > 100 µM | – | > 100 µM | – | > 100 µM | – | > 100 µM
CC1=C(/C=C/C(C)=C/C=C/C(C)=C/C=N/NC(=S)NC(=S)N/N=C/C=C(C)/C=C/C=C(C)/C=C/C2=C(C)CCCC2(C)C)C(C)(C)CCC1 | 1.75 µM and 0.944 µM | 5.09 µM and 1.85 µM | 3.97 µM and 1.66 µM | 11.3 µM and 7.77 µM | 1.16 µM and 0.667 µM | 6.09 µM and 2.45 µM | 1.76 µM and 1.17 µM | 7.28 µM and 4.37 µM | 4.09 µM and 2.1 µM | 11.7 µM and 9.42 µM | 3.23 µM and 1.85 µM | 9.12 µM and 6.78 µM | 1.55 µM and 1.56 µM | 5.03 µM and 6.03 µM | 6.79 µM and 5.51 µM | 14 µM and 12.3 µM | 5.25 µM and 4.15 µM | 11.6 µM and 12 µM | 8.6 µM and 2.2 µM | 16.1 µM and 7.54 µM
CCCC(C)n1c(C)nc2c1C(=O)c1ccccc1C2=O (stereo not given) | – | > 100 µM | – | > 100 µM | – | > 100 µM | – | 36.2 µM | – | > 100 µM | – | > 100 µM | – | 30 µM | – | > 100 µM | – | > 100 µM | – | > 100 µM
N#Cc1c(Br)n(C2OC(CO)C(O)C2O)c2ncnc(N)c12 (stereo not given) | 6.45 µM | > 100 µM | 4.62 µM | 74.7 µM | 0.723 µM | 7.02 µM | 3.63 µM | 41.1 µM | 2.07 µM | 30.7 µM | 2.14 µM | 12.7 µM | 2.68 µM | 7 µM | 4.29 µM | > 45.4 µM | 4.35 µM | > 75.9 µM | 4.02 µM | 42 µM
